Experimental data reported in PMC10820640, “An Intravenous Pharmacokinetic Study of Cannabidiol Solutions in Piglets through the Application of a Validated Ultra-High-Pressure Liquid Chromatography Coupled to Tandem Mass Spectrometry Method for the Simultaneous Quantification of CBD and Its Carboxylated Metabolite in Plasma” (Pharmaceutics, 2024).
Read-outs that look alike come from different tables or passages of the source.

Assays:
[1] = Intravenous pharmacokinetic study of CBD:HP-β-CD solution in piglets (UHPLC-MS/MS plasma quantification); format: in vivo, Large White piglets; parameters: A (macro constant): unit not given beside the values; γ (macro constant) / α (macro constant) / B (macro constant) / β (macro constant) / C (macro constant): unit not given here; conditions: for AUC(0-t) / Cmax: piglet plasma, IV 0.3 mg/kg CBD, non-compartmental analysis, normalized to dose
Procedure: The in vivo study was performed within the PigForLife® (CER Group Facilities) GLP structure (Marloie, Belgium). The study protocols were approved by the Local Ethical Commission before starting the study and complied with the Belgian regulation as published in the «Royal Decree of 29 May 2013 on the protection of experimental animals, A.G.W. 30 November 2017».
Sterile and isotonic CBD:HP-β-CD 100 mM (1.2 mg CBD/mL) solutions were prepared. A HP-β-CD stock solution (200 mM) was prepared by dissolving 31.0 g of HP-β-CD up to 100 mL with milliQ water. CBD:HP-β-CD complexes were prepared by adding an excess of CBD (45 mg) powder to 5 mL of milliQ water and 5 mL of the HP-β-CD stock solution, added with 84 mg of NaCl. The suspensions were kept in a rotating water bath set at 37 °C for 12 h. The suspensions were finally filtered through a 0.2 µm PHENEX® PTFE filter in laminar flow insulator conditions. The osmolarity and the pH value of the solutions were determined using a Freezing Point Osmometer (Löser, Delta Labo, Avignon, France) and a pH meter (Seven Easy, Mettler Toledo, Zaventem, Belgium), respectively. The solutions were injected to three Large White piglets (male and female, between 8 and 10 kg) at a dose of 0.3 mg/kg, as detailed in Table 3.
The animals were born on site and used in good health. The animals were housed together in pens of about 40 m^2 and an enriched environment was provided. Natural temperature and light cycles were used in a straw litter. During storage, the animals were fed ad libitum with a balanced pellet diet and were not given any curative or prophylactic veterinary drugs or additives during the study period. Tap water was available ad libitum. The piglets were fasted overnight ([…]) before receiving the formulations. All piglets were clinically examined before the study and before sampling. Blood samples (2 mL in EDTA tubes) were taken at 5 min, 10 min, 20 min, 30 min 45 min, 60 min, 90 min, 2 h, 4 h and 8 h. Blood samples were stored at 4 °C and centrifuged at 2500× g for 10 min. Plasma samples were then frozen at −80 °C until their analysis.
Pharmacokinetic analyses were evaluated by using the software Phoenix WinNonlin 8.4 version (Certara, Princeton, NJ, USA). Cmax and AUClast were determined through a non-compartmental pharmacokinetic analysis using the linear trapezoidal linear interpolation calculation method. Obtained values were normalized do the dose administered. The volumes of distribution (V1 and Vss), clearance and macro (A, B, C, α, β, γ) and micro (k10, k12, k21, k13, k31) constants were determined assuming a 2- or 3-compartment model. The model offering the best compromise between fitting and the number of parameters was selected based on an F test approach.

[2] = parameters: method as in PMID 34400185; conditions: reported in the literature; cited from earlier work
[3] = parameters: method as in PMID 30534073; conditions: humans, cited from earlier work
[4] = parameters: method as in PMID 31173966; conditions: mice, CBD emulsion IV 10 mg/kg; cited from earlier work
[5] = parameters: method as in PMID 35895770; conditions: horses, IV CBD in DMSO 0.1 mg/kg; cited from earlier work
[6] = both sexes, Large White, pig, n = 3
[7] = IV-bolus three-compartment model, n = 2
[8] = IV-bolus three-compartment model, n = 3
[9] = IV-bolus two-compartment model, n = 2
[10] = IV-bolus two-compartment model, n = 3
[11] = piglets, IV, two-compartment model

Compound: C=C(C)C1CCC(C(=O)O)=CC1c1c(O)cc(CCCCC)cc1O (centres unmarked) [7-COOH-CBD, 7-COOH-cannabidiol]
- AUC(0-t) [1, 6]: 3930 ± 572 ng·h/mL
- Cmax [1, 6]: 610 ± 169 ng/mL
- earliest time metabolite concentrations were observed ([1]; piglet plasma after IV CBD 0.3 mg/kg, first sampling point): 5 min
- metabolite plasmatic concentration relative to that of CBD [2]: 40 fold

Compound: C=C(C)[C@@H]1CCC(C)=C[C@H]1c1c(O)cc(CCCCC)cc1O [CBD, Cannabidiol]
- A (macro constant) [1, 7]: 638.52 ± 60.91
- B (macro constant) [1, 7]: 330.39 ± 41.34
- C (macro constant) [1, 7]: 17.71 ± 15.74
- α (macro constant) [1, 7]: 12.28 ± 7.90
- β (macro constant) [1, 7]: 0.80 ± 0.19
- γ (macro constant) [1, 7]: 0.09 ± 0.12
- A (macro constant) [1, 8]: 640.14 ± 43.16
- C (macro constant) [1, 8]: 10.56 ± 6.33
- β (macro constant) [1, 8]: 0.70 ± 0.21
- γ (macro constant) [1, 8]: 316.02 ± 38.40
- A (macro constant) [1, 9]: 500.89 ± 129.30
- B (macro constant) [1, 9]: 133.91 ± 105.05
- α (macro constant) [1, 9]: 2.75 ± 2.18
- β (macro constant) [1, 9]: 0.33 ± 0.10
- A (macro constant) [1, 10]: 542.53 ± 116.45
- B (macro constant) [1, 10]: 168.95 ± 95.92
- α (macro constant) [1, 10]: 3.71 ± 2.26
- β (macro constant) [1, 10]: 0.34 ± 0.07
- clearance ([1]; both sexes, Large White, pig, plasma, 0.3 mg/kg, piglets, IV, two-compartment model, read-out: Cl (clearance) (converted)): 25.2 mL/min
- Vd ([1]; both sexes, Large White, pig, plasma, 0.3 mg/kg, piglets, IV, two-compartment model, read-out: Vss (volume at steady state)): 3.26 ± 0.287 L
- AUC(0-t) [1, 6]: 639 ± 79.2 ng·h/mL
- Cmax [1, 6]: 600 ± 75.8 ng/mL
- half-life ([1]; both sexes, Large White, pig, piglets, IV 0.3 mg/kg CBD:HP-β-CD solution, experimental plasma profile, read-out: apparent distribution half-life (converted)): 0.25 h
- elimination half-life ([1]; piglets, IV 0.3 mg/kg CBD:HP-β-CD solution, experimental plasma profile): two
- Capacity (k12/k21) [1, 11]: 1.5
- Depth (k10/k12) [1, 11]: 0.58
- V1 (volume of the central compartment) [1, 11]: 1512.43 ± 538.41 mL
- fc (ratio of quantity in the central compartment over total quantity, β/k1-0) [1, 11]: 0.33
- k1-0 (micro constant) [1, 11]: 1.04 ± 0.20 h⁻¹
- k1-2 (micro constant) [1, 11]: 1.80 ± 1.43 h⁻¹
- k2-1 (micro constant) [1, 11]: 1.20 ± 0.74 h⁻¹
- half-life of elimination (t1/2) ([3]; after chronic oral administration): several days
- clearance ([3]; following an intravenous injection): 74.4 L/h
- half-life of elimination (t1/2) ([3]; pulmonary or single oral administration): around one or two
- clearance [4]: 56.7 mL/min/kg
- half-life [4]: 3.9 h
- half-life [5]: 3.15 h
